pIC50, pKi: −log10 of the molar value. Like-named read-outs stand apart in the source and are kept apart here.
Experiments:
human CB1R = molecular target: T1, human CB1R (Homo sapiens, UniProt P21554); assay: Radioligand competition displacement binding, [3H]CP-55,940, membranes with human CB1R; details: for pIC50: human CB1R, read-out: CB1R hIC50
T1 construct: purchased PerkinElmer RBHCB1M400UA
Description: BNS compounds’ binding to CB1R and CB2R was assessed in competition displacement assays using [^3H]CP-55,940 as the radioligand and crude membranes from mouse brain or human cells overexpressing the CB1R or CB2R. All data were in triplicates with Ki values determined from three independent experiments. See SI for a detailed procedure. […]
(§1) Radioligand binding assays were performed to asse ss the binding affinity of the different compounds to hCB1R (RBHCB1M4 00UA; Per kinElmer) or hCB 2R
(§2) (RBXCB2 M400UA; PerkinElmer). Competition displacement as says w ere employed, […]
(§3) utilizing [3H] C P -55,940 as the radioligand and crude membranes from humans for CB1 R or CB2 R. T he compounds were tested at various concentrations (eight points with a five-fold serial dilution starting at two m M) , and their ability to displace [3H] CP - 55, 940 was evaluated. Upon completion of the binding assays, the reaction mixture was filtered through GF/C plates, followed by four washes with cold wash buffer. After drying for one hour, 50 μL of Perkin Elmer Microscint 20 cocktail was added to the filter plate wells, and the bound [3H] C P -55,940 radioligand was measured using a β counter. All data points were duplicated, and Ki values were determined from two independent experiments using GraphPad Prism 7.02 analysis software, extracted through nonlinear regression analysis. […]

mouse CB1R = molecular target: T2, mouse CB1R (Mus musculus, UniProt P47746); assay: Radioligand competition displacement binding, [3H]CP-55,940, mouse brain membranes; details: [3H]CP-55,940 displacement, mouse brain membranes; read-out: CB1R mKi
T2 construct: crude membranes from mouse brain; from tissue; host or cells: mouse brain cortex (without cerebellum) membranes, C57Bl/6Jhsd mice
T2 sequence (P47746 whole entry): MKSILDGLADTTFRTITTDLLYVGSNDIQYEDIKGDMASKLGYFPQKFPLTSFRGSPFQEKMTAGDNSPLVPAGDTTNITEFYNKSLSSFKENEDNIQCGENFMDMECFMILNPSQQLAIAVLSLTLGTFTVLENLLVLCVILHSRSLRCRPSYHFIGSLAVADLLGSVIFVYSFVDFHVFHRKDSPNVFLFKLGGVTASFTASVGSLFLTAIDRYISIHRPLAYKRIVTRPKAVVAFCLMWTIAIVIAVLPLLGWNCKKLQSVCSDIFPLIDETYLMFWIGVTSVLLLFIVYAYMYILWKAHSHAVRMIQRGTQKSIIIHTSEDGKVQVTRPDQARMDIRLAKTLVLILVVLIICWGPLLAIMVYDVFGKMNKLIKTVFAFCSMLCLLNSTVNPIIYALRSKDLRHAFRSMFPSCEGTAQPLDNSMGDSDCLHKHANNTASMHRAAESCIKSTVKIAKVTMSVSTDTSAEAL
Description: (§4) BNS compounds’ binding to CB1R and CB2R was assessed in competition displacement assays using [^3H]CP-55,940 as the radioligand and crude membranes from mouse brain or human cells overexpressing the CB1R or CB2R. All data were in triplicates with Ki values determined from three independent experiments. See SI for a detailed procedure.
Supplementary Experimental Methods
Brain membrane preparation for CB1R b i nd i ng . The mouse cortex, excluding the cerebellum, was dissected from 6-week-old C57Bl/6Jhsd mice (Harlan, Israel). The tissue was homogenized in 4 mL Buffer 1 (320 mM sucrose, 2 mM EDTA, 5 m M MgCl 2) using a glass-Teflon homogenizer and Hei-T ORQUE 200 (Heidolph; Cat# 17-012- 002- 25 -1) homogenizer set to 132 rpm. After homogenization, the mixture was centrifuged at 1,600 × g for 10 min at four °C, and the resulting supernatant was kept on ice. The pellet (P1) was discarded, and the remaining supernatant was subje cted to additional rounds of resuspension in 4 mL Buffer 1 followed by centrifugations, repeating this process three times. The pellets obtained from these centrifugations were discarded, and the three supernatant fractions were combined and subjected to higher-speed centrifugation at 39,000 × g for 15 min at f ou r °C. […] This resuspended pellet ( P 2 ) was incubated at 37 °C for 10 min and then centrifuged at 23, 000 × g for 10 min at 4°C.
After centrifugation, the pellet (P2) was resuspended in 5 mL Buffer 2 and further incubated at 30 °C for 40 min. Following this incubation, the suspension was centrifuged at 11,000 × g for 15 min at 4 °C. The pellet (P2) was resuspended in 2 mL Buffer 3 containing 50 mM TRIS HCl pH 7.4, 1 mM EDTA, and 3 mM MgCl 2. T h e protein concentration of the final suspension was determined using the BCA assay.
Subsequently, the suspension was diluted to a final concentration of 2 mg/mL in Buffer 3, aliquoted on ice, and stored at - 80 °C for further use.
(§5) CB1R and CB2R binding. Binding to the CB1R/CB2R was asse ss ed using competition displacement as says with [ 3H] CP -55,940 as the radioligand. Purified membranes from the mouse brain were utilized for CB1R assessment (as described above). Purified […]
membranes from cells overexpressing human CB2R ( Char les River CAT # A618) w e r e employed for CB2R evaluation.
For mouse CB1R binding assays, the novel compounds were dissolved in dimethyl sulfoxide (DMSO) to reach a final concentration of 10 mM. Each compound was then diluted in Buffer 3 (as described above) supplemented with 0.14% BSA, resulting in concentrations ranging from 10^-4 M to 10^-10 M. Triplicates of 100 µL of each concentration were dispensed into siliconized glass tubes. At the same time, 100 µL of Buffer 3 with 0.14% BSA was dispensed into three tubes as blanks. CB1R b r a i n membranes (20 µg) were added to each tube and diluted with 800 µL Buffer 3 with 0.14% BSA. Subsequently, 5 nM of [ 3H] CP -55,940 (100 µL) was added to each tube.
The tubes were sealed with parafilm and incubated with shaking (120 rpm) in a water bath at 30 °C for 1 hour. Following incubation, 2 mL of cold Buffer 4 (50 mM TRIS HCl pH 7.4, 1 mg/mL BSA) was added to each tube.
To harvest the content of each tube, a Brandel M-24R Vacuum Harvester was employed, with a wet WHATMAN GF/B filter paper (Fired) (one membrane for 12 tubes) placed in the harvester after being washed twice with Buffer 4. The filter membrane in the harvester absorbed the full content of each tube. Then, the filter membrane was wash ed six times with Buffer 4. Each filter -glass membrane tube wa s excised and transferred to a 20 mL glass tube co ntaining a 5 mL ULTIMA GOLD scintillation cocktail. […]

human CB2R = molecular target: T3, human CB2R (Homo sapiens, UniProt P34972); assay: Radioligand competition displacement binding, [3H]CP-55,940, membranes with human CB2R; details: [3H]CP-55,940 displacement, read-out: CB2R hKi
T3 construct: purchased PerkinElmer; Charles River RBXCB2M400UA; A618
T3 sequence (P34972 whole entry): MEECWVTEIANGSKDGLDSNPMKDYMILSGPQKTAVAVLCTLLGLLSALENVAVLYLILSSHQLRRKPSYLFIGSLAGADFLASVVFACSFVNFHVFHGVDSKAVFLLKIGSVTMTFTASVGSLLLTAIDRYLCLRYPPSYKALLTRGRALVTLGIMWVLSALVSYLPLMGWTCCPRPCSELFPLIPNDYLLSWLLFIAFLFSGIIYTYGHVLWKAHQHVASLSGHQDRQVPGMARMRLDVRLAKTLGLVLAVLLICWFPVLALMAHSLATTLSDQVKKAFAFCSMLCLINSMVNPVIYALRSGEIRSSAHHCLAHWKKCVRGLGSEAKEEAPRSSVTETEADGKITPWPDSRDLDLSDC
Description: as §4
Supplementary Experimental Methods […]
as §5
membranes from cells overexpressing human CB2R ( Char les River CAT # A618) w e r e employed for CB2R evaluation. […]
as §1, §2, §3
MgCl 2. The tissue was homogenized using a glass -Teflon and Hei-T ORQUE 200 homogenizer (Heidolph; Cat#17- 012- 002- 25 -1) set to 132 rpm. The resulting suspen sion underwent centrifugation at 48,000 × g for 20 min at four °C, and the supernatant was discarded. The pellet obtained was homogenized again and subjected to a second centrifugation under the same conditions. Subsequently, the resulting pellet […]
mM EGTA, 9 mM MgCl 2, and 150 mM NaCl, followed by homogenization. The protein concentration of the suspension was determined using the BCA assay, and the suspen sion was diluted to a final concentration of 2 mg/mL in assay buffer. The prepared suspension was aliquoted on ice and stored at - 80 °C for further use.

HepG2 cells = assay: Cell viability assay (CellTiter Glo); assay type: cell-based; details: 72 h; for pIC50: Homo sapiens
Description: Cell viability assay. To assess the cell viability, which indicates the toxicity of the novel compounds, a total of 3,000 HepG2 cells were seeded into a 384-well plate. The compounds were then dispensed onto the cell plate using a Tecan D300e digital dispenser. Following compound addition, 35 μL CellTiter Glo reagent was added to all wells of the assay plate, and the plate was mixed for 30 sec on an or bital shaker to lyse cells. Subsequently, the plate was incubated at room temperature for 10 minutes. The luminescence signal was measured using a 384-well plate reader (EnVision). The obtained data were analyzed using XL-fit software (ID Business Solutions Ltd., Software version: XL fit 5. 5. 0. 5). The percentage of inhibition was calculated using the […]
Inhibition (%) = (1-Sample / ZPE) ×100
Sample represents the test compound's luminesc e nce signal, and ZPE represents the luminescence signal f r om the zer o-percent enzyme control.

in vitro = details: mouse
Description: (§6) Protein binding of test compound in mouse brain using equilibrium dialysis […]
(§7) method. Solution A (0. 5 mM) was prepared by mixing 10 µL of a 10 mM stock solution […]
(§8) with 190 µL of DMSO. Subsequently, Solution B (0.02 mM) was prepared by adding […]
(§9) 8 µL of solution A to 192 µL of 0.05 M sodium phosphate buffer. The final concentration of DMSO in Solution B was 4%.
(§10) A 96-well plate was initially prepared by dispensing 380 µL aliquots of brain […]
(§11) tissue into wells designated for the brain while t h e buffer was added to the remaining […]
(§12) wells to serve as a control. Subsequently, 20 µL of Solution B (containing 0.02 mM of […]
(§13) test and reference compounds) was spiked into the pre-loaded brain samples in the […]
(§14) plate. This step yielded a final test concentration of 1 µM, containing 0.2% DMSO. A duplicate system was establi shed for the dialysis sampl es wherein brain tissu e was prepared against buffer. Initially, 100 µL aliquots of blank dialysis buffer were applied to the receiver side of the dialysis chambers. Subsequently, 100 µL aliquots of the brain […]
(§15) tissue spiked with te st and reference compounds were applied to the donor side of the […]
(§16) T0 brain samples for initial concentrations were prepared in duplicate. A 25µL […]
(§17) aliquot of the brain spiked with test and reference compounds was transferred into a 96- […]
(§18) well sample preparation plate. An equivalent volume of blank buffer was then added […]
(§19) to each well. Af ter the 5-hour incubation period, aliquots of 25 µL wer e taken f r om t h e […]
(§20) dialysis apparatus's donor and receiver sides and transferred into new sample […]
(§21) preparation plates. An equal volume of the opposite matrix (blank buffer to brain and […]
(§22) vice versa) was added to each well, resulting in a final volume of 50 µL in each well.
(§23) The samples (both T0 and f i v e h) were then quenched with 200 µL of acetonitrile […]
(§24) containing internal standard (IS) and vortexed at 600 rpm for 10 minutes. After […]
(§25) vortexing, the samples were centrifuged at 5594 × g for 15 minutes. Subsequently, 50 […]
(§26) µL of the supernatants were transferred to a new 96-well plate and mixed with 50 µL […]
(§27) of Milli- Q water. T he sample plates wer e cover ed and stor ed in a f r eezer ( -20 ℃) until […]
(§28) respectively. For data analysis, the following equations wer e used:
(§29) % Bound = 100 × ([Donor]5h -[ Receiver] 5h) / [Donor] 5h
(§30) % Recovery= 100 × ([Donor]5h +[Receiver] 5h) / [Initial] 0h
(§31) Undiluted Fu (%) = (1/D) / [(1/Fu2-1 ) + 1/ D ]
(§32) Whereas; D: Dilution factor = Dilution factor of brain: 4

mouse brain tissue = assay: in vitro; details: mouse, 5 h, 1 µM
Description: as §6, §7, §8, §9, §10, §11, §12, §13, §14, §15, §16, §17, §18, §19, §20, §21, §22, §23, §24, §25, §26, §27, §28, §29, §30, §31, §32

T1 sequence (P21554 whole entry): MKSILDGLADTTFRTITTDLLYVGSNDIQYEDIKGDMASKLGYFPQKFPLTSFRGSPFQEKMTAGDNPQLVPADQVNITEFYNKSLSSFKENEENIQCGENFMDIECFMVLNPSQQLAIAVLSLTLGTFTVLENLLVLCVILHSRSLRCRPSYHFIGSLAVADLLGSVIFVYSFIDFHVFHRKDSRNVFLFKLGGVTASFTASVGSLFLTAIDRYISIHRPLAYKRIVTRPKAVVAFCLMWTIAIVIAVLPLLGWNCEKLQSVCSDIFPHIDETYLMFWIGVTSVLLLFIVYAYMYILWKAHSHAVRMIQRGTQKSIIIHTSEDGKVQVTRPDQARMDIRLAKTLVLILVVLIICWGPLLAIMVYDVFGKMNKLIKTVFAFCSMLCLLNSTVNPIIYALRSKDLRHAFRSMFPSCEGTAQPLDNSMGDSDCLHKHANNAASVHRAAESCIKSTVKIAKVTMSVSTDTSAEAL

Compound	pKi (human CB1R; [3H]CP-55,940 displacement, human CB1R membranes, read-out: CB1R hKi)	pIC50 (human CB1R)	pKi (mouse CB1R)	pKi (human CB2R)	Bottom (%) of cell viability inhibition curve (HepG2 cells) [%]	Slope of cell viability inhibition curve (HepG2 cells)	Top (%) of cell viability inhibition curve (HepG2 cells) [%]	pIC50 (HepG2 cells; read-out: cell viability Absolute IC50)	pIC50 (HepG2 cells; read-out: cell viability relative IC50)	fraction unbound at 5 h, 1 µM (in vitro)	fraction unbound at 5 h, 1 µM (in vitro; tissue homogenate)	Fraction of bound (%) (mouse brain tissue)	Undiluted Bound (%) (mouse brain tissue)
O=C(NC1CCCOc2c1nn(-c1ccccc1Cl)c2-c1ccc(Cl)cc1)C1CCN(S(=O)(=O)c2ccc(Cl)cc2)CC1 (stereo not shown) [BNS825, N-[2-(2-Chlorophenyl)-3-(4-chlorophenyl)-5,6,7,8-tetrahydrooxepino[3,2-c]pyrazol-8-yl]-1-(4-chlorophenyl)sulfonyl-piperidine-4-carboxamide]	8.51	8.42	8.80	6.90	-11.62	-0.21	6.27	< 4.00	< 4.00				
CS(=O)(=O)NC1CCCOc2c1nn(-c1ccccc1Cl)c2-c1ccc(Cl)cc1 (stereo not shown) [BNS809, N-[2-(2-Chlorophenyl)-3-(4-chlorophenyl)-5,6,7,8-tetrahydrooxepino[3,2-c]pyrazol-8-yl]methanesulfonamide]		8.07	7.47	< 5.05									
CC(=O)CC(c1ccccc1)c1c(O)c2ccccc2oc1=O (stereo not shown) [Warfarin, reference compound]										0.277	0.605	39.5	72.3

— PMC12067444, “Synthesis and Pharmacological Characterization of Novel Peripheral Cannabinoid-1 Receptor Blockers Based on a Tricyclic Scaffold” (Journal of Medicinal Chemistry, 2025)
